One experiment deals with T1, recombinant Axl tyrosine kinase (Homo sapiens, UniProt P30530).
T1 construct: encompassing amino acids 473 to 894 of Axl; GST (N); made in house; host or cells: SF126 insect cells
T1 sequence (P30530 473-894): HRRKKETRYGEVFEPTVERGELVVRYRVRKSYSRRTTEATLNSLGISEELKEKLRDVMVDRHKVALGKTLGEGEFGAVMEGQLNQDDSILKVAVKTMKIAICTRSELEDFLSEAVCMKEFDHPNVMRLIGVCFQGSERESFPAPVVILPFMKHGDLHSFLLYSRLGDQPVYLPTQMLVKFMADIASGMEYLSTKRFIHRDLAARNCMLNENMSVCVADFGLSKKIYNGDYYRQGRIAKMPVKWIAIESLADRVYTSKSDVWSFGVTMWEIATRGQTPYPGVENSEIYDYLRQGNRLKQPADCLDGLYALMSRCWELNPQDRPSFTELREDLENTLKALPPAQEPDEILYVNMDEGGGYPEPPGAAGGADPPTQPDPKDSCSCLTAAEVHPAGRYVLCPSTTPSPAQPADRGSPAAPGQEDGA
In words: In vitro Axl kinase assay (AlphaScreen), Test (a). Format: biochemical. The settings on record: test compound at 1 μM; first value quoted. (Bead proximity is the source of the signal in Alpha formats.)
`Nc1ncc(-c2cnn(CCCN3CCCC3)c2)cc1-c1nc2ccccc2o1` [Example 27.2]: the “% Axl tyrosine kinase inhibition at 1 μM concentration” value (from here on “% Axl tyrosine kinase inhibition”) is listed as 99.9%.

On to `Nc1ncc(-c2cnn(CCN3CCCC3)c2)cc1-c1nc2ccccc2o1` [Example 27.3], for which the “% Axl tyrosine kinase inhibition” value worked out at 96.4%.

As for `CN(C)CCCn1cc(-c2cnc(N)c(-c3nc4ccccc4o3)c2)cn1` [Example 27.4], the “% Axl tyrosine kinase inhibition” value was 99.2%.

For `CN(C)CCn1cc(-c2cnc(N)c(-c3nc4ccccc4o3)c2)cn1` [Example 27.5], the “% Axl tyrosine kinase inhibition” value came to 98.4%.

Take `CN1C2CCC1CC(n1cc(-c3cnc(N)c(-c4nc5ccccc5o4)c3)cn1)C2` (stereo not shown) [Example 27.6]: the “% Axl tyrosine kinase inhibition” value came to 99.9%.

On to `Nc1ncc(-c2cnn(C3CCOCC3)c2)cc1-c1nc2ccccc2o1` [Example 27.7], for which the “% Axl tyrosine kinase inhibition” value is on record as 99.8%.

As to `Nc1ncc(-c2cnn(C3CNC3)c2)cc1-c1nc2ccccc2o1` [Example 29.2], the “% Axl tyrosine kinase inhibition” value is 99.8%.

Regarding `Nc1ncc(-c2cnn(C3CCNC3)c2)cc1-c1nc2ccccc2o1` (stereo not shown) [Example 29.3], the “% Axl tyrosine kinase inhibition” value came out at 99.9%.

With `Nc1ncc(-c2cnn(CC3CNC3)c2)cc1-c1nc2ccccc2o1` [Example 29.4], the “% Axl tyrosine kinase inhibition” value was determined as 99.1%.

Take `Nc1ncc(-c2cnn(C3CCCNC3)c2)cc1-c1nc2ccccc2o1` (stereo not shown) [Example 29.6]: the “% Axl tyrosine kinase inhibition” value was determined as 99.9%.

For `Nc1ncc(-c2cnn(CC3CCNCC3)c2)cc1-c1nc2ccccc2o1` [Example 29.7], the “% Axl tyrosine kinase inhibition” value worked out at 99.8%.

Turning to `Cc1nn(C2CCNCC2)c(C)c1-c1cnc(N)c(-c2nc3ccccc3o2)c1` [Example 29.8], the “% Axl tyrosine kinase inhibition” value came out at 88.7%.

`Nc1ncc(-c2cnn(CCCN3CCC(O)C3)c2)cc1-c1nc2ccccc2o1` (stereo not shown) [Example 31.1]: the “% Axl tyrosine kinase inhibition” value was 100.0%.

As to `Nc1ncc(-c2cnn(CCCN3CCC[C@@H]3CO)c2)cc1-c1nc2ccccc2o1` [Example 31.2], the “% Axl tyrosine kinase inhibition” value was determined as 99.9%.

For `CN1CCN(CCCn2cc(-c3cnc(N)c(-c4nc5ccccc5o4)c3)cn2)CC1` [Example 31.5], the “% Axl tyrosine kinase inhibition” value was 100.0%.

Regarding `Nc1ncc(-c2cnn(CCCN3CCC3)c2)cc1-c1nc2ccccc2o1` [Example 31.6], the “% Axl tyrosine kinase inhibition” value turned out to be 99.7%.

On to `Nc1ncc(-c2cnn(CCN3CCC[C@@H]3CO)c2)cc1-c1nc2ccccc2o1` [Example 31.8], for which the “% Axl tyrosine kinase inhibition” value is reported as 99.7%.

Consider `Nc1ncc(-c2cnn(CCN3CCC(O)CC3)c2)cc1-c1nc2ccccc2o1` [Example 31.9], for which the “% Axl tyrosine kinase inhibition” value was found to be 99.8%.

Consider `Nc1ncc(-c2cnn(CCN3CCC3)c2)cc1-c1nc2ccccc2o1` [Example 31.10], for which the “% Axl tyrosine kinase inhibition” value is listed as 94.3%.

On to `CC(=O)N1CCC(n2cc(-c3cnc(N)c(-c4nc5ccccc5o4)c3)cn2)CC1` [Example 34.1], for which the “% Axl tyrosine kinase inhibition” value was found to be 99.8%.

With `Nc1ncc(-c2cnn(C3CCN(C(=O)CO)CC3)c2)cc1-c1nc2ccccc2o1` [Example 34.2], the “% Axl tyrosine kinase inhibition” value turned out to be 100.0%.

For the compound `CC(O)C(=O)N1CCC(n2cc(-c3cnc(N)c(-c4nc5ccccc5o4)c3)cn2)CC1` (stereo not shown) [Example 34.3], the “% Axl tyrosine kinase inhibition” value amounted to 99.7%.

Consider `Nc1ncc(-c2cnn(C3CCNCC3)c2)cc1-c1nc2ccc(F)c(F)c2o1` [Example 38.1], for which the “% Axl tyrosine kinase inhibition” value is reported as 99.5%.

For the compound `Nc1ncc(-c2cnn(C3CCNCC3)c2)cc1-c1nc2cccc(F)c2o1` [Example 38.3], the “% Axl tyrosine kinase inhibition” value was 100.0%.

Regarding `COc1cccc2nc(-c3cc(-c4cnn(C5CCNCC5)c4)cnc3N)oc12` [Example 38.5], the “% Axl tyrosine kinase inhibition” value is 100.0%.

As for `COc1cccc2oc(-c3cc(-c4cnn(C5CCNCC5)c4)cnc3N)nc12` [Example 38A.1], the “% Axl tyrosine kinase inhibition” value turned out to be 97.8%.

As to `Nc1ncc(-c2cnn(C3CCNCC3)c2)cc1-c1nc2c(F)cccc2o1` [Example 38A.2], the “% Axl tyrosine kinase inhibition” value stood at 100.0%.

For `N#Cc1cccc2oc(-c3cc(-c4cnn(C5CCNCC5)c4)cnc3N)nc12` [Example 38A.3], the “% Axl tyrosine kinase inhibition” value stood at 99.9%.

With `CN1CCC(n2cc(-c3cnc(N)c(-c4nc5cnccc5o4)c3)cn2)CC1` [Example 41.1], the “% Axl tyrosine kinase inhibition” value is 99.8%.

With `CN1CCCC(n2cc(-c3cnc(N)c(-c4nc5ccccc5o4)c3)cn2)C1` (stereo not shown) [Example 41.2], the “% Axl tyrosine kinase inhibition” value is given as 99.3%.

On to `CN1CCC(n2cc(-c3cnc(N)c(-c4nc5ncccc5o4)c3)cn2)CC1` [Example 41.4], for which the “% Axl tyrosine kinase inhibition” value is 99.8%.

Take `CN1CCC(Cn2cc(-c3cnc(N)c(-c4nc5ccccc5o4)c3)cn2)CC1` [Example 41.6]: the “% Axl tyrosine kinase inhibition” value is recorded as 99.9%.

`CN1CC(n2cc(-c3cnc(N)c(-c4nc5ccccc5o4)c3)cn2)C1` [Example 41.8]: the “% Axl tyrosine kinase inhibition” value is 99.7%.

As to `CN1CCC(n2cc(-c3cnc(N)c(-c4nc5ccccc5o4)c3)cn2)C1` (stereo not shown) [Example 41.9], the “% Axl tyrosine kinase inhibition” value is given as 100.0%.

Consider `CN1CCC(n2cc(-c3cnc(N)c(-c4nc5cccc(F)c5o4)c3)cn2)CC1` [Example 41.10], for which the “% Axl tyrosine kinase inhibition” value was found to be 99.7%.

Take `CN1CC(Cn2cc(-c3cnc(N)c(-c4nc5ccccc5o4)c3)cn2)C1` [Example 41.11]: the “% Axl tyrosine kinase inhibition” value is recorded as 74.7%.

As for `CCOc1nn(C2CCN(C)CC2)cc1-c1cnc(N)c(-c2nc3ccccc3o2)c1` [Example 41.13], the “% Axl tyrosine kinase inhibition” value worked out at 100.0%.

As for `COc1nn(C2CCN(C)CC2)cc1-c1cnc(N)c(-c2nc3ccccc3o2)c1` [Example 41.14], the “% Axl tyrosine kinase inhibition” value is 100.0%.

Take `CN1CCC(Cn2cc(-c3cnc(N)c(-c4nc5ccccc5o4)c3)cn2)C1` (stereo not shown) [Example 41.15]: the “% Axl tyrosine kinase inhibition” value is listed as 98.4%.

In the case of `CN1CCC(n2cc(-c3cnc(N)c(-c4nc5ccc(F)c(F)c5o4)c3)cn2)CC1` [Example 41.16], the “% Axl tyrosine kinase inhibition” value is reported as 98.3%.

Turning to `Cc1nn(C2CCN(C)CC2)c(C)c1-c1cnc(N)c(-c2nc3ccccc3o2)c1` [Example 41.17], the “% Axl tyrosine kinase inhibition” value came to 84.8%.

Staying with this experiment, now noted: test compound at 1 μM; first value quoted; read-out: % Axl tyrosine kinase inhibition at 1 μM concentration.
On to `Nc1ncc(-c2cnn(CCO)c2)cc1-c1nc2ccccc2o1` [Example 28, 2-[4-[6-amino-5-(1,3-benzoxazol-2-yl)-3-pyridyl]pyrazol-1-yl]ethanol], for which the inhibition at 1 µM was 99.3%.

`Nc1ncc(-c2cnn(CCCO)c2)cc1-c1nc2ccccc2o1` [Example 29.1, 3-[4-[6-amino-5-(1,3-benzoxazol-2-yl)-3-pyridyl]pyrazol-1-yl]propan-1-ol]: the inhibition at 1 µM was found to be 99.7%.

For the compound `CN1CCN(CCn2cc(-c3cnc(N)c(-c4nc5ccccc5o4)c3)cn2)CC1` [Example 30, 3-(1,3-benzoxazol-2-yl)-5-[1-[2-(4-methylpiperazin-1-yl)ethyl]pyrazol-4-yl]pyridin-2-amine], the inhibition at 1 µM is 99.8%.

`Nc1ncc(-c2cnn(CCN3CCNCC3)c2)cc1-c1nc2ccccc2o1` [Example 32, 3-(1,3-benzoxazol-2-yl)-5-[1-(2-piperazin-1-ylethyl)pyrazol-4-yl]pyridin-2-amine]: the inhibition at 1 µM turned out to be 99.9%.

Turning to `COCC(=O)N1CCC(n2cc(-c3cnc(N)c(-c4nc5ccccc5o4)c3)cn2)CC1` [Example 33, 1-[4-[4-[6-amino-5-(1,3-benzoxazol-2-yl)-3-pyridyl]pyrazol-1-yl]-1-piperidyl]-2-methoxy-ethanone], the inhibition at 1 µM worked out at 99.9%.

Regarding `COc1ccc2nc(-c3cc(-c4cnn(C5CCN(C)CC5)c4)cnc3N)oc2c1` [Example 35, 3-(6-methoxy-1,3-benzoxazol-2-yl)-5-[1-(1-methyl-4-piperidyl)pyrazol-4-yl]pyridin-2-amine], the inhibition at 1 µM turned out to be 99.6%.

Take `COc1ccc2oc(-c3cc(-c4cnn(C5CCN(C)CC5)c4)cnc3N)nc2c1` [Example 35A, 3-(5-methoxy-1,3-benzoxazol-2-yl)-5-[1-(1-methyl-4-piperidyl)pyrazol-4-yl]pyridin-2-amine]: the inhibition at 1 µM was found to be 100%.

With `Cc1cccc2nc(-c3cc(-c4cnn(C5CCN(C)CC5)c4)cnc3N)oc12` [Example 36, 3-(7-methyl-1,3-benzoxazol-2-yl)-5-[1-(1-methyl-4-piperidyl)pyrazol-4-yl]pyridin-2-amine], the inhibition at 1 µM came out at 100%.

In the case of `Nc1ncc(-c2cnn(C3CCNCC3)c2)cc1-c1nc2ncc(F)cc2o1` [Example 37, 3-(6-fluorooxazolo[4,5-b]pyridin-2-yl)-5-[1-(4-piperidyl)pyrazol-4-yl]pyridin-2-amine], the inhibition at 1 µM came out at 98.4%.

With `CNC(=O)[C@@H]1C[C@@H](n2cc(-c3cnc(N)c(-c4nc5ccccc5o4)c3)cn2)CN1C` [Example 39, (2S,4R)-4-[4-[6-amino-5-(1,3-benzoxazol-2-yl)-3-pyridyl]pyrazol-1-yl]-N,1-dimethyl-pyrrolidine-2-carboxamide], the inhibition at 1 µM was 99.9%.

For `Nc1ncc(-c2cn(C3CCNCC3)nn2)cc1-c1nc2ccccc2o1` [Example 40, 3-(1,3-benzoxazol-2-yl)-5-[1-(4-piperidyl)triazol-4-yl]pyridin-2-amine], the inhibition at 1 µM was 100%.

Values taken from US8017611B2, “Pyridine and pyrazine derivatives -083” (AstraZeneca AB, priority 2007, dated 2011).
